# pKi: −log10 of the molar value.
# Target: 4-aminobutyrate aminotransferase, mitochondrial (Sus scrofa, UniProt P80147)
# Assay: Compound was tested for the inhibition of Gamma-amino-N-butyrate transaminase (GABA-AT)
# 4-aminobutyrate aminotransferase, mitochondrial, sequence (P80147 whole entry): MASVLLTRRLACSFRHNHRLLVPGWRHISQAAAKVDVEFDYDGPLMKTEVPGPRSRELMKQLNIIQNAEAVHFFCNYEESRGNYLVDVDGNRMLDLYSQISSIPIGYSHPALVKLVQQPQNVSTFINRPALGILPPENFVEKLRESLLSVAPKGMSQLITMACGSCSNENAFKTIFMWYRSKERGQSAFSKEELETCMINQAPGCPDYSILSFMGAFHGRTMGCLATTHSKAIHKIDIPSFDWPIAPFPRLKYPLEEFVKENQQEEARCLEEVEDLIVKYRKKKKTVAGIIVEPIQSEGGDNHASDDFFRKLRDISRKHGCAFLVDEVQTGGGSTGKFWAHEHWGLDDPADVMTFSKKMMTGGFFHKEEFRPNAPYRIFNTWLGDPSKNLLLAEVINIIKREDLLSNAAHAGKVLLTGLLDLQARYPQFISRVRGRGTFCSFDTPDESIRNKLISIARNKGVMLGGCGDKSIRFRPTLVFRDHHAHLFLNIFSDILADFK
row,pKi,SMILES
1,2.92,N[C@@H]1CC=C(C(=O)O)C1
2,1.42,N[C@@H]1C=C[C@@H](C(=O)O)C1
3,2.57,N[C@H]1C=C[C@@H](C(=O)O)C1
4,4.28,N[C@@H]1C=C[C@H](C(=O)O)C1
5,1.14,N[C@H]1CC=C(C(=O)O)C1
6,3.22,NC1C=CC(C(=O)O)C1 (racemic)
